According to patent publication US20240279205A1, “NOVEL BENZIMIDAZOLE DERIVATIVE” (Carna Biosciences, Inc., priority 2020, published 2024):
Structures can show the parent of a compound that is named as a salt.

Key:
[1] = system: STING activation (IFN-β production in THP-1 cells); experiment: Human IFN-β production inhibition test by cGAMP stimulation in THP-1 cells; format: cell-based; parameters: IFN-β bioinhibitory activity: scale not given here; settings: 2'3'-cGAMP transfection, 18 hours, IFN-β ELISA; for IC50: Homo sapiens, read-out: IFN-β bioinhibitory activity
Experimental: Human IFN-β production inhibition test by cGAMP stimulation
The inhibitory activity of test compounds against STING activation was evaluated by measuring the amount of IFN-β produced when human monocytic cell line THP-1 cells were stimulated with the endogenous ligand cGAMP.
After seeding THP-1 cells (ATCC) in a 96-well plate, PMA (Santa Cruz Biotechnology) adjusted to a concentration of 100 nM after addition was added, and incubated at 37° C. in a 5% CO2 incubator. It was cultured overnight (RPMI1640 medium containing 10% FBS, 50 U/mL penicillin/50 μg/mL streptomycin). A test compound solution adjusted to a final concentration of 0.001 to 1 μM was added to each well of this plate and cultured for 1 hour in a CO2 incubator (DMSO final concentration 0.1%). 0.12 μg/well of 2′3′-cGAMP (Invivogen, #tlrl-nacga23) was introduced into the cells by transfection using Lipofectamine2000 (Invitrogen) and cultured in a CO incubator for an additional 18 hours. After collecting the culture supernatant from each well, the amount of human IFN-β produced in the culture supernatant was measured by ELISA using R&D human IFN-β Duoset (R&D Systems).
Assuming that the human IFN-β production amount of the test compound-free and cGAMP-added group is 100%, and the human IFN-β production amount of the test compound-free and cGAMP-free group is 0%, the IC50 value was determined by regression analysis of the inhibitory rate determined from the amount of human IFN-β production at each compound concentration and the concentration of the test compound (logarithm).

[2] = target: T1, human STING (hSTING) (Homo sapiens, UniProt Q86WV6); experiment: Inhibition test of intracellular human STING (hSTING) pathway using SEAP reporter cells (HEK-Blue ISG), stimulation with Compound 3; format: cell-based; parameters: hSTING inhibitory activity: scale not given here; settings: Compound 3 10 nM stimulation, 21 hours; for IC50: read-out: hSTING inhibitory activity
T1 construct: host or cells: HEK-Blue ISG cells (HEK293-derived SEAP reporter line)
T1 sequence (Q86WV6 whole entry H232R): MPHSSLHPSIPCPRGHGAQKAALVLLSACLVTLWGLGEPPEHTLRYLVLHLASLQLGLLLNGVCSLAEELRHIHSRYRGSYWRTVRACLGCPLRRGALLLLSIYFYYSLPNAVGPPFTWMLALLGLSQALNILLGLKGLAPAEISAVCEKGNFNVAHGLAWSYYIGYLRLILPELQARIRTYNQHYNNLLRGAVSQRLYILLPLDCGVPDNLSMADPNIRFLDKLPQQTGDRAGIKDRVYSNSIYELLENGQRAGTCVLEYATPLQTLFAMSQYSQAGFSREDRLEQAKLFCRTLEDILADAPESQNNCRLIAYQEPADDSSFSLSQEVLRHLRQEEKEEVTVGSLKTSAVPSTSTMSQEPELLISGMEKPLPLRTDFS
Summary of the method: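 HEK-Blue ISG cells with IRF-inducible SEAP reporter, pretreated 1 h with compound (final 0.1 to 10 μM), then stimulated with Compound 3 (final 10 nM) for 21 h at 37° C. Supernatant SEAP measured colorimetrically; IC50 from log-concentration regression, normalized to stimulated (100%) and unstimulated (0%) controls.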

| SMILES | hSTING inhibitory activity [2] | IC50 [1] | IC50 [2] | IFN-β bioinhibitory activity [1] |
| --- | --- | --- | --- | --- |
| CN(C)n1c(Nc2c[nH]c3ccc(Cl)cc23)nc2cc(C(F)(F)F)cc(F)c21 [Embodiment 237, N2-(5-Chloro-1H-indol-3-yl)-7-fluoro-N1,N1-dimethyl-5-(trifluoromethyl)-1H-benzo[d] imidazole-1,2-diamine] | * * * |  |  | * * |
| CCc1ccc2[nH]cc(Nc3nc4ccc(Oc5ccc(F)cc5)cc4n3C3CC3)c2n1 [Embodiment 190, 1-Cyclopropyl-N-(5-ethyl-1H-pyrrolo[3,2-b]pyridin-3-yl)-6-(4-fluorophenoxy)-1H-benzo[d]imidazole-2-amine formate] |  | ≥ 1 µM | 1 to 10 µM |  |
| Brc1ccc2[nH]cc(Nc3nc4cc(I)ccc4[nH]3)c2n1 [Embodiment 80, N-(5-bromo-1H-pyrrolo[3,2-b]pyridin-3-yl)-5-iodo-1H-benzo [d]imidazol-2-amine] | * * * |  |  | * * * |
| Fc1ccc(Oc2ccc3nc(Nc4c[nH]c5ccc(Cl)cc45)n(C4CC4)c3c2)cc1 [Embodiment 196, N-(5-Chloro-1H-indol-3-yl)-1-cyclopropyl-6-(4-fluorophenoxy)-1H-benzo[d]imidazol-2-amine] | * * * |  |  | * * |
| Clc1ccnc2c(Nc3nc4cc(Oc5ccccc5)ccc4[nH]3)c[nH]c12 [Embodiment 38, N-(7-chloro-1H-pyrrolo[3,2-b]pyridin-3-yl)-5-phenoxy-1H-benzo[d]imidazol-2-amine] | * * | ≥ 1 µM |  |  |
| Clc1ccc2[nH]cc(Nc3nc4cc(I)ccc4[nH]3)c2n1 [Embodiment 124, N-(5-Chloro-1H-pyrrolo[3,2-b]pyridin-3-yl)-5-iodo-1H-benzo[d] imidazol-2-amine] | * * |  |  | * * * |
| Fc1ccc2c(c1)nc(Nc1c[nH]c3ccc(Cl)cc13)n2C1CC1 [Embodiment 189, N-(5-Chloro-1H-indol-3-yl)-1-cyclopropyl-5-fluoro-1H-benzo[d] imidazol-2-amine] | * * | 0.1 to 1 µM |  |  |
| Cc1ccc2[nH]cc(Nc3nc4cc(Oc5ccccc5)ccc4[nH]3)c2n1 [Embodiment 53, N-(5-methyl-1H-pyrrolo[3,2-b]pyridin-3-yl)-5-phenoxy-1H-benzo[d]imidazol-2-amine] | * * | ≥ 1 µM |  |  |
| Brc1ccc2[nH]cc(Nc3nc4cc(Oc5ccccc5)ccc4[nH]3)c2c1 [Example 3, N-(5-bromo-1H-indol-3-yl)-5-phenoxy-1H-benzo[d]imidazol-2-amine] | * * |  |  | * * |
| Clc1ccc2[nH]cc(Nc3nc4c(N5CCCCC5)cccc4[nH]3)c2n1 [Embodiment 127, N-(5-Chloro-1H-pyrrolo[3,2-b]pyridin-3-yl)-4-(piperidin-1-yl)-1H-benzo[d]imidazol-2-amine] | * * |  |  | * * |
| Cn1c(Nc2c[nH]c3cc(F)c(Cl)cc23)nc2cc(C(F)(F)F)ccc21 [Embodiment 262, N-(5-Chloro-6-fluoro-1H-indol-3-yl)-1-methyl-5-(trifluoromethyl)-1 H-benzo[d]imidazol-2-amine] | * * * |  |  | * * |
| Brc1ccc2[nH]cc(Nc3nc4c(Br)cccc4[nH]3)c2c1 [Example 24, 4-bromo-N-(5-bromo-1H-indol-3-yl)-1H-benzo[d]imidazol-2-amine] | * * |  |  | * * |
| Fc1cc(C(F)(F)F)cc2nc(Nc3c[nH]c4ccc(Cl)cc34)[nH]c12 [Embodiment 267, N-(5-Chloro-1H-indol-3-yl)-7-fluoro-5-(trifluoromethyl)-1H-benzo [d]imidazol-2-amine] | * * | 0.1 to 1 µM |  |  |
| Cc1cc(C)c2nc(Nc3c[nH]c4ccc(Cl)nc34)[nH]c2c1 [Embodiment 87, N-(5-Chloro-1H-pyrrolo[3,2-b]pyridin-3-yl)-4,6-dimethyl-1H-benzo[d]imidazol-2-amine] | * * | 0.1 to 1 µM |  |  |
| Cn1c(Nc2c[nH]c3ccc(Cl)nc23)nc2ccc(Oc3ccc(F)cc3)cc21 [Embodiment 58, N-(5-chloro-1H-pyrrolo[3,2-b]pyridin-3-yl)-6-(4-fluorophenoxy)-1-methyl-1H-benzo[d]imidazol-2-amine] | * * | 0.1 to 1 µM |  |  |
| Clc1ccc2[nH]cc(Nc3nc4ccc(Oc5ccccc5)cc4n3C3CC3)c2n1 [Embodiment 119, N-(5-Chloro-1H-pyrrolo[3,2-b]pyridin-3-yl)-1-cyclopropyl-6-phenoxy-1H-benzo[d]imidazol-2-amine] | * * * | 0.1 to 1 µM |  |  |
| Cc1cc(C(F)(F)F)cc2nc(Nc3c[nH]c4ccc(Cl)cc34)n(C)c12 [Embodiment 248, N-(5-Chloro-1H-indol-3-yl)-1,7-dimethyl-5-(trifluoromethyl)-1H-benzo[d]imidazol-2-amine] | * * * |  |  | * * |
| Cn1c(Nc2c[nH]c3ccc(Cl)cc23)nc2cc(C(F)(F)F)c(Cl)cc21 [Embodiment 250, 6-Chloro-N-(5-chloro-1H-indol-3-yl)-1-methyl-5-(trifluoromethyl)-1H-benzo[d]imidazol-2-amine] | * * |  |  | * * |

Further lines, with some results ahead:

| hSTING inhibitory activity [2] | IC50 [1] | IC50 [2] | SMILES | IFN-β bioinhibitory activity [1] |
| --- | --- | --- | --- | --- |
| * * |  |  | Fc1cccc2[nH]c(Nc3c[nH]c4ccc(Br)cc34)nc12 [Example 25, N-(5-bromo-1H-indol-3-yl)-4-fluoro-1H-benzo[d]imidazol-2-amine] | * * |
| * * |  |  | Clc1ccc2[nH]cc(Nc3nc4cc(Br)ccc4[nH]3)c2n1 [Embodiment 95, 5-bromo-N-(5-chloro-1H-pyrrolo [3,2-b]pyridin-3-yl)-1H-benzo [d]imidazol-2-amine formate] | * * * |
| * * * |  |  | Cn1c(Nc2c[nH]c3ccc(Cl)cc23)nc2ccc(Oc3ccc(F)cc3)cc21 [Embodiment 195, N-(5-Chloro-1H-indol-3-yl)-6-(4-fluorophenoxy)-1-methyl-1H-benzo[d]imidazol-2-amine] | * * |
| * * * | 0.1 to 1 µM |  | Clc1ccc2[nH]cc(Nc3nc4c(Cl)c(Cl)ccc4[nH]3)c2n1 [Embodiment 94, 4,5-dichloro-N-(5-chloro-1H-pyrrolo[3,2-b]pyridin-3-yl)-1H-benzo[d]imidazol-2-amine] |  |
| * * | 0.1 to 1 µM |  | Cn1c(Nc2c[nH]c3ncc(Cl)cc23)nc2cc(C(F)(F)F)ccc21 [Embodiment 109, N-(5-Chloro-1H-pyrrolo[2,3-b]pyridin-3-yl)-1-methyl-5-(trifluoromethyl)-1H-benzo[d] imidazol-2-amine] |  |
| * * * | 0.1 to 1 µM | 1 to 10 µM | Brc1ccc2[nH]cc(Nc3nc4cc(-c5ccccc5)ccc4[nH]3)c2n1 [Embodiment 60, N-(5-bromo-1H-pyrrolo[3,2-b]pyridin-3-yl)-5-phenyl-1H-benzo [d]imidazol-2-amine] |  |
| * * | 0.1 to 1 µM |  | N#Cc1ccc2[nH]c(Nc3c[nH]c4ccc(Br)cc34)nc2c1 [Example 19, 2-[(5-bromo-1H-indol-3-yl)amino]-1H-benzo[d]imidazole-5-carbonitrile] |  |
| * * |  |  | FC(F)(F)c1ccc2[nH]c(Nc3c[nH]c4ccc(Br)cc34)nc2c1 [Example 8, N-(5-bromo-1H-indol-3-yl)-5-(trifluoromethyl)-1H-benzo[d]imidazol-2-amine] | * * |
| * * |  |  | CC#CCn1c(Nc2c[nH]c3ccc(Cl)cc23)nc2cc(C(F)(F)F)ccc21 [Embodiment 228, 1-(But-2-yn-1-yl)-N-(5-rolo-1H-indol-3-yl)-5-(trifluoromethyl)-1H-benzo[d]imidazol-2-amine] | * * |
| * * | 0.1 to 1 µM |  | OCCn1c(Nc2c[nH]c3ccc(Cl)cc23)nc2cc(OC(F)(F)F)ccc21 [Embodiment 245, 2-{2-[(5-Chloro-1H-indol-3-yl)amino]-5-(trifluoromethoxy)-1H-benzo[d]imidazol-1-yl}ethan-1-oar] |  |
| * * * |  |  | CCn1c(Nc2c[nH]c3ccc(Cl)cc23)nc2cc(OC(F)(F)F)ccc21 [Embodiment 251, N-(5-Chloro-1H-indol-3-yl)-1-ethyl-5-(trifluoromethoxy)-1H-benzo [d]imidazol-2-amine] | * * |
